Source: patent US10807958B2, “1,4-bis(3-aminopropyl)piperazine derivative and its use” (INSERM (Institut National de la Sante et de la Recherche …, priority 2015, dated 2020)

Test system: Neuroblastoma SKNSH-SY5Y cells expressing the human Tau isoform 412
Test: 1D gel electrophoresis / Western blot of Tau expression and phosphorylation in treated cells
Format: cell-based
Settings: 10 μM, vs induced but non-treated condition, FIG. 1
From the text: Pan-Tau and phospho-dependent Tau antibodies included Tau-Nter (M19G, 1/10 000, Sergeant et al., 1999), Tau-Cter (1/10 000, Sergeant et al., 1999, Le Freche et al., 2012), Tau-1 (1/5000, Merck Millipore), S199P (directed against the phospho-serine 199, 1/4000, Sergeant et al., 1999), Tau-Phospho S396 (directed against the phosphor-serine 396, 1/10000, Lifetechnologies), Tau-Phospho 404 (1/10 000, Lifetechnologies), 422 (clone 2H9, a homemade monoclonal antibody developed against a phospho-peptide containing the phosphorylated serine 422 residue of Tau, numbering according to the longest human brain Tau-441 isoform), AT8 (1/1000, Thermo Scientific), AT270 (1/2000, Thermo Scientific), AT100 (1/1000, Thermo Scientific). Neuron specific enolase (1/10 000), β-actin (1/5000) and β-tubulin (1/10 000) were from Sigma-Aldrich.
Human neuroblastoma cell line SKNSH-SY5Y cells expressing the human Tau isoform 412 (with the exon 2 and 10 encoding sequences) (or SY5Y-Tau46) was as previously described in Bretteville et al., 2009.
Neuroblastoma SKNSH-SY5Y cells expressing the human Tau isoform 412 (with the exon 2 and 10 encoding sequences) were treated with 10 μM of the hydrochloride salt of N-[3-(4-{3-[Bis(2-methylpropyl)amino]propyl}piperazin-1-yl)propyl]-1,2,3,4-tetrahydroacridin-9-amine (Example 6, hereinafter named “Compound I⋅HCl”) which was diluted in the culture medium as described in Bretteville et al., 2009.
For the western-blot analysis of Tau proteins, SDS-PAGE was performed according to the manufacturer's instructions using Bis-Tris 4-12% gradient acrylamide gel (NuPage® Bis-Tris PreCast 12 wells, Life Technologies). The apparent molecular weights were calibrated using the molecular weight markers (Novex and Magic Marks, Life Technologies). Electrophoresis was performed under a continuous tension of 100V/per gel for 1 h. […]
The effect of the compound of Formula I on Tau phosphorylation was analyzed in vitro and in vivo. […]
Expression and total phosphorylation was assessed by 1D and 2D gel electrophoresis using phospho-dependent and pan-Tau antibodies (FIGS. 1 and 2). […]

CC(C)CN(CCCN1CCN(CCCNc2c3c(nc4ccccc24)CCCC3)CC1)CC(C)C [compound of Formula I, N-[3-(4-{3-[Bis(2-methylpropyl)amino]propyl}piperazin-1-yl)propyl]-1,2,3,4-tetrahydroacridin-9-amine]
Tau phosphorylation at serine 199 (S199P antibody): reduced
Tau phosphorylation at serine 396 (S396 antibody): reduced
Tau expression (pan-Tau antibodies): No significant change
